Results reported in ChEMBL document CHEMBL1201862, “PubChem BioAssay data set” (2004).
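Exposure lasted 48 hours, with cells grown in 96-well plates and compounds tested at five concentrations. The concentration for 50% growth inhibition is given as GI50.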 The source made the active and inactive calls. No stated cut-off is given here; in the data, active = GI50 up to about 1.1 µM and inactive = higher.

How the values were obtained:
Assay in all cases: NCI anticancer screen, dose series, 48 h
HCC 2998 = tested on: HCC 2998
MDA-N = tested on: MDA-N
SW-620 = tested on: SW-620
SK-MEL-2 = tested on: SK-MEL-2
COLO 205 = tested on: COLO 205
HT-29 = tested on: HT-29
SR = tested on: SR
MCF7 = tested on: MCF7
SF-268 = tested on: SF-268
A498 = tested on: A498
CAKI-1 = tested on: CAKI-1
SK-MEL-28 = tested on: SK-MEL-28
NCI-H226 = tested on: NCI-H226
PC-3 = tested on: PC-3
Malme-3M = tested on: Malme-3M
BT-549 = tested on: BT-549
K562 = tested on: K562
HCT-116 = tested on: HCT-116
CCRF-CEM = tested on: CCRF-CEM
IGROV-1 = tested on: IGROV-1

Measured: GI50

Cc1cc(Nc2ccc(S(=O)(=O)O)cc2)c2ccccc2n1
inactive: HCC 2998 > 100 µM | MDA-N > 100 µM | SW-620 > 100 µM | SK-MEL-2 > 100 µM | COLO 205 > 100 µM | HT-29 > 100 µM | SR > 100 µM | MCF7 > 100 µM | SF-268 > 100 µM | A498 > 100 µM | CAKI-1 > 100 µM | SK-MEL-28 > 100 µM | NCI-H226 > 100 µM | PC-3 > 100 µM | Malme-3M > 100 µM | BT-549 > 100 µM | K562 > 100 µM | HCT-116 > 100 µM | CCRF-CEM > 100 µM | IGROV-1 > 100 µM

COc1ccc(/C=C2\CCC(C)(CN(C)C)C2=O)cc1Br (stereo not drawn)
inactive: HCC 2998 20.8 µM | MDA-N 19.1 µM | SW-620 19.8 µM | SK-MEL-2 18.7 µM | COLO 205 18.5 µM | HT-29 21.9 µM | SR 19.1 µM | MCF7 13.5 µM | SF-268 16.5 µM | A498 22.4 µM | CAKI-1 32.7 µM | SK-MEL-28 22.9 µM | NCI-H226 18.9 µM | PC-3 20.4 µM | Malme-3M 25.8 µM | BT-549 16 µM | K562 27.9 µM | HCT-116 17.2 µM | CCRF-CEM 37.5 µM | IGROV-1 16.2 µM

CC1OC(O[C@H]2CC[C@]3(C)[C@H]4CC=C5[C@@H]6[C@@H](C)[C@H](C)CC[C@]6(C(=O)OC6OC(CO)C(O)C(O)C6O)CC[C@@]5(C(=O)O)[C@]4(C)CC[C@H]3C2(C)C)C(O)C(O)C1O (stereo partly drawn)
inactive: HCC 2998 > 100 µM | MDA-N > 100 µM | SW-620 > 100 µM | SK-MEL-2 > 100 µM | COLO 205 > 100 µM | SR > 100 µM | MCF7 > 100 µM | SF-268 > 100 µM | A498 > 100 µM | CAKI-1 > 100 µM | PC-3 > 100 µM | BT-549 > 100 µM | K562 > 100 µM | HCT-116 > 100 µM | CCRF-CEM > 100 µM

O=c1c(=O)c2c(Br)sc(Br)c2c1=O
inactive: HCC 2998 57.3 µM | MDA-N 18.1 µM | SW-620 15.8 µM | SK-MEL-2 20.8 µM | COLO 205 20.3 µM | HT-29 25 µM | SR 20.6 µM | MCF7 20.3 µM | SF-268 33 µM | A498 > 100 µM | CAKI-1 19.1 µM | SK-MEL-28 14.7 µM | NCI-H226 > 100 µM | PC-3 19.2 µM | Malme-3M 17.7 µM | BT-549 19.4 µM | K562 21.4 µM | HCT-116 20.1 µM | IGROV-1 18.2 µM

C=CC1(CC/C(=C\[N+](=O)[O-])c2ccc(OC)c(OC)c2)OCC(C)(C)CO1
inactive: HCC 2998 24.5 µM | MDA-N 21.8 µM | SW-620 26.9 µM | SK-MEL-2 19.1 µM | COLO 205 18 µM | HT-29 19.9 µM | SR 3.61 µM | MCF7 13.9 µM | SF-268 16 µM | A498 > 10 µM | CAKI-1 23.2 µM | SK-MEL-28 19.8 µM | NCI-H226 16.4 µM | PC-3 25.6 µM | Malme-3M 23.2 µM | BT-549 13.8 µM | K562 6.61 µM | HCT-116 18.9 µM | CCRF-CEM 7.57 µM

CC(Cc1ccc(O)c(O)c1)C(C)Cc1ccc(O)c(O)c1 (stereo not drawn) [NORDIHYDROGUAIARETIC ACID]
inactive: HCC 2998 19.1 µM | MDA-N 10.2 µM | SW-620 18.9 µM | SK-MEL-2 18.5 µM | COLO 205 18.7 µM | HT-29 22.9 µM | SR 9.79 µM | MCF7 20.2 µM | SF-268 16.3 µM | A498 37 µM | CAKI-1 11.4 µM | SK-MEL-28 16.2 µM | NCI-H226 22.5 µM | PC-3 21.9 µM | Malme-3M 15.9 µM | BT-549 13.9 µM | K562 25.4 µM | HCT-116 17.3 µM | CCRF-CEM 4.38 µM | IGROV-1 16.9 µM

NS(=O)(=O)c1ccc(/N=N/c2ccc(O)c(O)c2)cc1
inactive: HCC 2998 21.2 µM | MDA-N 20.6 µM | SW-620 7.89 µM | SK-MEL-2 17.2 µM | COLO 205 20.7 µM | HT-29 27.2 µM | SR 3.05 µM | MCF7 27.5 µM | SF-268 14.5 µM | A498 24.9 µM | CAKI-1 36.2 µM | SK-MEL-28 18.1 µM | NCI-H226 14.5 µM | PC-3 20.6 µM | Malme-3M 21.3 µM | BT-549 2.58 µM | K562 28.7 µM | HCT-116 9.71 µM | CCRF-CEM 3.56 µM | IGROV-1 11.7 µM
